In brackets after ≈: the same amount, converted by molar mass. Numbered stars: 1 amine (or outer) side, 2 acyl side, 3 side chain; on linkers, the order of the positions; unused ones are H or OH. Square brackets hold non-standard residues; d marks the D form. Peptide text beside a SMILES is read from it. * marks the point of attachment. ξ: configuration not given here. X1 = N=C1NCC(C(O)C(N[*:1])C(=O)[*:2])N1C1OC(CO)C(O)C(O)C1O; ξEnduracididine(βξ-OH,4'ξ) = N=C1NCC(C(O)C(N)C(=O)O)N1; X2 = OCC1OC(OC2C(CO)OC(*)C(O)C2O)C(O)C(O)C1O
Experiments:
Experiment in all cases: in vitro antibacterial evaluation, MIC by broth dilution
Format in all cases: cell-based
Enterococcus sp. = conditions: broth dilution, 18 hours at 35° C.
Summary of the method: (§1)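 Broth dilution per NCCLS standard M7-A2 in Muller-Hinton II […], with an inoculum of 5×10^5 CFU/mL and antibiotic spanning 64-0.06 μg/mL. The MIC is the lowest concentration that inhibits growth of the organism.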

Escherichia coli = conditions: 18 hours at 35° C.
Summary of the method: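 Inoculum 5×10^5 CFU/mL; concentrations 64 to 0.06 μg/mL; MIC defined as lowest inhibitory level. Conducted by broth dilution under NCCLS guidelines.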

Staphylococcus sp. = conditions: broth dilution, 18 hours at 35° C.
Summary of the method: as §1

Streptococcus sp. = conditions: broth dilution, 18 hours at 35° C.
Summary of the method: as §1

- MIC Enterococcus avium (GC 4558) (Enterococcus sp.; Enterococcus avium (GC 4558)): 128 µg/mL (≈ 99.9 µM)
- MIC Enterococcus faecalis (ATCC 29212) (Enterococcus sp.; Enterococcus faecalis (ATCC 29212)): >128 µg/mL
- MIC Enterococcus faecalis (GC 4553) (Enterococcus sp.; Enterococcus faecalis (GC 4553)): >128 µg/mL
- MIC Enterococcus faecalis (GC 4554) (Enterococcus sp.; Enterococcus faecalis (GC 4554)): >128 µg/mL
- MIC Enterococcus faecalis (GC 6189) (Enterococcus sp.; Enterococcus faecalis (GC 6189)): >128 µg/mL
- MIC Enterococcus faecium (GC 2243) (Enterococcus sp.; Enterococcus faecium (GC 2243)): >128 µg/mL
- MIC Enterococcus faecium (GC 4556) (Enterococcus sp.; Enterococcus faecium (GC 4556)): >128 µg/mL
- MIC Enterococcus faecium (GC 4557) (Enterococcus sp.; Enterococcus faecium (GC 4557)): 128 µg/mL (≈ 99.9 µM)
- MIC Enterococcus faecalis (ATCC 29212) (Enterococcus sp.; strain ATCC 29212): >128 µg/mL
- MIC Enterococcus faecalis (GC 2242) (Enterococcus sp.; strain GC 2242): >128 µg/mL
- MIC Enterococcus faecium (GC 2243) (Enterococcus sp.; strain GC 2243): >128 µg/mL
- MIC Enterococcus faecalis (GC 2691) (Enterococcus sp.; strain GC 2691): >128 µg/mL
- MIC Enterococcus faecalis (GC 3059) (Enterococcus sp.; strain GC 3059): >128 µg/mL
- MIC Enterococcus faecalis (GC 4552) (Enterococcus sp.; strain GC 4552): >128 µg/mL
- MIC Enterococcus faecalis (GC 4553) (Enterococcus sp.; strain GC 4553): >128 µg/mL
- MIC Enterococcus faecalis (GC 4554) (Enterococcus sp.; strain GC 4554): >128 µg/mL
- MIC Enterococcus faecium (GC 4556) (Enterococcus sp.; strain GC 4556): >128 µg/mL
- MIC Enterococcus faecium (GC 4557) (Enterococcus sp.; strain GC 4557): 128 µg/mL (≈ 99.9 µM)
- MIC Enterococcus avium (GC 4558) (Enterococcus sp.; strain GC 4558): 128 µg/mL (≈ 99.9 µM)
- MIC Enterococcus faecalis (GC 6189) (Enterococcus sp.; strain GC 6189): >128 µg/mL
- MIC Escherichia coli (ATCC 25922) (Escherichia coli; Escherichia coli (ATCC 25922)): >128 µg/mL
- MIC Escherichia coli (GC 4559) (Escherichia coli; Escherichia coli (GC 4559)): >128 µg/mL
- MIC Escherichia coli (GC 4560) (Escherichia coli; Escherichia coli (GC 4560)): 128 µg/mL (≈ 99.9 µM)
- MIC Coagulase Negative Staphylococcus (GC 4547) (Staphylococcus sp.): >128 µg/mL
- MIC Coagulase Negative Staphylococcus (GC 4548) (Staphylococcus sp.): >128 µg/mL
- MIC Coagulase Negative Staphylococcus (GC 4549) (Staphylococcus sp.): >128 µg/mL
- MIC Coagulase Negative Staphylococcus (GC 4551) (Staphylococcus sp.): >128 µg/mL
- MIC Staphylococcus aureus (ATCC 29213) (Staphylococcus sp.): >128 µg/mL
- MIC Staphylococcus aureus (GC 1131) (Staphylococcus sp.): >128 µg/mL
- MIC Staphylococcus aureus (GC 3051) (Staphylococcus sp.): >128 µg/mL
- MIC Staphylococcus aureus (GC 3053) (Staphylococcus sp.): >128 µg/mL
- MIC Staphylococcus aureus (GC 4541) (Staphylococcus sp.): >128 µg/mL
- MIC Staphylococcus aureus (GC 4542) (Staphylococcus sp.): >128 µg/mL
- MIC Staphylococcus aureus (GC 4544) (Staphylococcus sp.): >128 µg/mL
- MIC Staphylococcus aureus (GC 4545) (Staphylococcus sp.): >128 µg/mL
- MIC Staphylococcus aureus-SMITH (GC 4543) (Staphylococcus sp.): >128 µg/mL
- MIC Staphylococcus aureus (ATCC 29213) (Staphylococcus sp.; strain ATCC 29213): >128 µg/mL
- MIC Staphylococcus aureus (GC 1131) (Staphylococcus sp.; strain GC 1131): >128 µg/mL
- MIC Staphylococcus aureus (GC 3051) (Staphylococcus sp.; strain GC 3051): >128 µg/mL
- MIC Staphylococcus aureus (GC 3053) (Staphylococcus sp.; strain GC 3053): >128 µg/mL
- MIC Staphylococcus aureus (GC 4541) (Staphylococcus sp.; strain GC 4541): >128 µg/mL
- MIC Staphylococcus aureus (GC 4542) (Staphylococcus sp.; strain GC 4542): >128 µg/mL
- MIC Staphylococcus aureus (GC 4544) (Staphylococcus sp.; strain GC 4544): >128 µg/mL
- MIC Staphylococcus aureus (GC 4545) (Staphylococcus sp.; strain GC 4545): >128 µg/mL
- MIC Coagulase Negative Staphylococcus (GC 4547) (Staphylococcus sp.; strain GC 4547): >128 µg/mL
- MIC Coagulase Negative Staphylococcus (GC 4548) (Staphylococcus sp.; strain GC 4548): >128 µg/mL
- MIC Coagulase Negative Staphylococcus (GC 4549) (Staphylococcus sp.; strain GC 4549): >128 µg/mL
- MIC Coagulase Negative Staphylococcus (GC 4551) (Staphylococcus sp.; strain GC 4551): >128 µg/mL
- MIC Staphylococcus aureus-SMITH (GC 4543) (Staphylococcus sp.; strain SMITH GC 4543): >128 µg/mL
- MIC Streptococcus pneumoniae (ATCC 6301) (Streptococcus sp.; strain ATCC 6301): 128 µg/mL (≈ 99.9 µM)
- MIC Streptococcus pneumoniae (GC 1894) (Streptococcus sp.; strain GC 1894): 128 µg/mL (≈ 99.9 µM)
- MIC Streptococcus pyogenes (GC 4563) (Streptococcus sp.; strain GC 4563): >128 µg/mL
- MIC Streptococcus agalactiae (GC 4564) (Streptococcus sp.; strain GC 4564): >128 µg/mL
- MIC Streptococcus pneumoniae (GC 4565) (Streptococcus sp.; strain GC 4565): >128 µg/mL
SMILES: N=C1NCC(C(O)C2NC(=O)C(Cc3ccc(OC4OC(CO)C(OC5OC(CO)C(O)C(O)C5O)C(O)C4O)cc3)NC(=O)C(Cc3ccccc3)NC(=O)CNC(=O)C(CO)NC(=O)C(C(O)C3CNC(=N)N3C3OC(CO)C(O)C(O)C3O)NC2=O)N1 (stereo not drawn) [Example 282, Cyclo[glycylphenylalanyl-O-(4-O-hexopyranosylhexopyranosyl)tyrosyl-3-(2-iminomidazolidin-4-yl)seryl-3-(3-hexopyranosyl-2-iminoimidazolidin-4-yl)serylseryl]] (cyclo(GFY(X2)[ξEnduracididine(βξ-OH,4'ξ)][X1]S); configuration not given here)
- MIC Staphylococcus haemolyticus (GC 4546) (Staphylococcus sp.): >128 µg/mL
- MIC Staphylococcus haemolyticus (GC 4546) (Staphylococcus sp.; strain GC 4546): >128 µg/mL

Reference: patent publication US6914045B2, “Glycopeptide antibiotics” (Wyeth Holdings Corporation, priority 2001, dated 2005)
